Data taken from US20260091147A1, “METHOD FOR DETECTING INNATE IMMUNE ACTION IN VIVO USING GPR84-PET” (The Board of Trustees of the Leland Standford Junior …, priority 2023, published 2026).

How the values were obtained:
[1] = tested on: human monocyte-derived macrophages (hMDMs); assay: hMDM radioactive cell binding assay, with or without LPS; type: cell-based; conditions: LPS 100 ng/mL; for tracer signal in LPS-challenged hMDMs after co-incubation with GLPG1205: GLPG1205 block
Protocol: CD14^+ monocytes isolated from PBMCs from human peripheral blood were plated 10×10^6 cells per 10 cm petri dish in 8-10 mL complete growth medium (for quantitative PCR) or 10^6-10^5 cells per well in 1 mL complete growth medium into one 12-well plate per blood donor (radioactive cell binding) and incubated 7-10 days at 5% CO2 in air at 37° C. These cells were then treated with 100 ng/mL LPS in complete growth medium 24 hr or 72 hr prior to experimentation according to previous working concentrations in the literature.
Human monocyte-derived macrophages (hMDMs) were plated at a concentration of 10^6-10^5 cells per well in media (RPMI 1640+glutamax with 10% FBS, 1% anti-anti, and 50 ng/mL M-CSF) into one 12-well plate per blood donor. Once cells adhered to the plate (˜24 hr), 100 ng/mL lipopolysaccharides (LPS) was applied to two of the three rows of the plate. 24 hr later, the [^11C]GLPG38, [^11C]MGX-10S, or [^18F]MGX-110S radiotracer was prepared. The radiotracer was diluted in RPMI 1640 without FBS or antibiotic to yield a 30 mL solution such that the amount of activity was 50 μCi/mL for ^11C or 2 μCi/mL for ^18F. Additionally, a blocking solution was prepared consisting of 35 μM GLPG1205 dissolved in DMSO and added to RPMI 1640 media+tracer solution. The 12-well plates were incubated for 30 min at […] and 5% CO2 in air. Following incubation, the radioactive media was removed and replaced with 500 μL fresh media, and a 10 min efflux was conducted. After efflux, the media was collected into a gamma counting tube to measure supernatant, and the cells were washed with PBS, trypsinized, resuspended in RPMI 1640+glutamax+10% FBS, then pipetted into gamma counting tubes at 500 μL volume.
Radioactivity levels bound to cells were measured in a gamma counter (Hidex Oy, Helsinki, Finland), and cell counts were recorded using Trypan blue and an automatic cell counter to normalize radioactivity levels to cell count.

[2] = target: T1, GPR84 (Mus musculus, UniProt Q8CIM5); assay: Dynamic PET/CT of brain in LPS-induced systemic inflammation vs saline, with or without GLPG1205 block; type: in vivo; conditions: LPS 10 mg/kg, 24 h
T1 construct: tissue Jackson Laboratories; host or cells: female C57BL/6J mice (LPS, saline, EAE or naive): brain, spinal cord and peripheral organs
T1 sequence (Q8CIM5 whole entry): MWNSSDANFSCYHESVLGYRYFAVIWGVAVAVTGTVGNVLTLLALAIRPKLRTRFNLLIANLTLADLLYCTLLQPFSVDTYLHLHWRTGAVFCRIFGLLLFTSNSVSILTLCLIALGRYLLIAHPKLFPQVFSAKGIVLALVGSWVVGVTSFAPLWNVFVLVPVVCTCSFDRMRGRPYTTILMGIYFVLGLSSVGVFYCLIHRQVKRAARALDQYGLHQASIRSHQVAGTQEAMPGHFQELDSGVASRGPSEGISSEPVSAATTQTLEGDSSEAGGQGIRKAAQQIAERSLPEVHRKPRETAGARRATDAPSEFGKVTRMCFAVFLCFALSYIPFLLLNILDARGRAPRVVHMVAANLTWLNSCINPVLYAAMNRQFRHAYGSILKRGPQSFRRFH
Protocol: To determine KD of GLPG38, a competitive binding assay was performed using a membrane preparation from cells expressing GPR84-Gi in addition to [^3H]G9543, a known GPR84 antagonist. [^11C]GLPG38 was then radiosynthesized via [^11C]methylation of desmethyl precursor using [^11C]methyl iodide. […] Dynamic 60 min PET/CT imaging was performed 24 hr following LPS-administration using [^11C]GLPG38. Subsequently, mice were perfused with PBS to remove blood, and radioactive signal was assessed in CNS and peripheral tissues via gamma counting. Ex vivo autoradiography of sagittal mouse brain sections was conducted to obtain high resolution images of [^11C]GLPG38 binding. To investigate alterations in GPR84 mRNA expression, quantitative polymerase-chain reaction was performed using mouse brain tissue and human monocyte-derived macrophage cells stimulated with LPS 24 hr prior to RNA extraction.
The count densities were averaged for all volumes of interest at each time point to obtain a time-activity curve (TAC). The TACs were normalized to injected dose, as measured by a CRC-15 PET dose calibrator (Capintec Inc.), and expressed as % injected dose per gram (% ID/g), assuming 1 g/mL. CT was performed in GNEXT depth of interaction (DOI) dual-layer detector system. Scintica VivoQuant software was used to visualize radiotracer uptake and define the 3D volumes of interest. 3D maximum intensity projection (MIP) PET/CT images were created using IRW software.
A range of doses (0.65, 0.75, and 0.90 mg/kg) of GLPG1205 were used to investigate whether the blocking was dose-dependent. […] GLPG1205 was injected intra-venously 10 min prior to radiotracer injection (n=4).

[3] = tested on: GPR84-positive immune cells; assay: PET/CT in B16F1 melanoma brain metastasis model, with or without anti-PD-1 and anti-CTLA-4; type: in vivo, mouse; conditions: anti-PD-1 and anti-CTLA-4, day 9
Protocol: Six-to-eight-week-old female C57BL/6 mice were injected subcutaneously with 0.25×10^6 B16F1 melanoma cells on the right flank to generate extracranial tumors. After two days of extracranial tumor inoculation, 5×10^3 B16F1 melanoma cells were stereotactically injected into the striatum. Five days after intracranial tumor inoculation, mice were randomized into treatment (n=4) vs no treatment (n=4) groups based on the intracranial bioluminescence signals and monitored daily starting on day 5 for extracranial tumor volume changes. On days 5, 7 and 9 post-intracranial tumor inoculation, mice in the treatment group were treated with anti-PD-1 and anti-CTLA-4 (200 μg via intraperitoneal injection). T2-weighted MRI (Bruker) with a CryoProbe was performed on day 9 after intracranial tumor inoculation to identify brain tumor region of interest. Following MRI, mice underwent PET/CT imaging on the GNEXT PET/CT (Sofie). 100-125 μCi of [^18F]MGX-110S was injected for a 10-min static PET scan followed by CT. Mice were then perfused and organs of interest were dissected and analyzed via gamma counting. Region of interest analysis of the PET images was performed using a 3D volume drawing mode around the intracranial and extracranial tumors (Inveon Research Workspace).

Compound | tracer binding in LPS-challenged hMDMs compared to unstimulated cells [1] | tracer signal in LPS-challenged hMDMs after co-incubation with GLPG1205 [1] | brain PET signal in LPS-treated vs saline-treated mice at 40-60 min post injection [2] | PET signal in intracranial tumor, untreated vs immunotherapy-treated mouse [3]
Cc1cc2c(cc1O[11CH3])CCn1c-2c(C)c(OC[C@@H]2COCCO2)cc1=O [[^11C]GLPG38] | significantly higher binding | reduced to baseline | significantly elevated | –
O=c1nc(OC[C@@H]2COCCO2)cc2n1CCc1cc([18F])ccc1-2 [^18F-MGX-110S] | significantly higher binding | reduced to baseline | – | significantly elevated signal
